The values below come from ChEMBL document CHEMBL1201862, “PubChem BioAssay data set” (2004).

Some test systems named below: A549; COLO 205; HCC 2998; HT-29; KM12; MDA-N; NCI-H226; NCI/ADR-RES; OVCAR-3; OVCAR-5; OVCAR-8; SK-MEL-5; SNB-19; SR; SW-620; U-251; UACC-257; UO-31; A498; Hs-578T.
Common to all, as to test: NCI-60 cell line screen, 48 h

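Assay format: 96-well plates, 48-hour exposure. GI50: concentration for 50% inhibition of growth.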 Calls of active or inactive are those of the source. No stated cut-off is given here; in the data, active = GI50 up to about 1.1 µM and inactive = higher.

Consider `N#C/C(=C\c1cc(Br)c(O)c(Br)c1)c1cccnc1`, for which the GI50 in the assay on A549 is 34.2 µM (inactive); in the assay with COLO 205 it was 22.8 µM (inactive); in the assay on HCC 2998, 36.1 µM (inactive); in the assay on HT-29 it was 34.9 µM (inactive); with KM12, 27.2 µM (inactive); with MDA-N, > 100 µM (inactive). Moreover, the GI50 in the assay with NCI-H226 was 21.5 µM (inactive); with NCI/ADR-RES, 24 µM (inactive); in the assay with OVCAR-3, 21 µM (inactive); in the assay with OVCAR-5, 41.6 µM (inactive); with OVCAR-8, 35.6 µM (inactive); with SK-MEL-5 it was > 10 µM (inactive). Moreover, the GI50 was 39.1 µM (inactive) in the assay on SNB-19; 31.3 µM (inactive) in the assay with SR; 28.8 µM (inactive) in the assay on SW-620; 16.7 µM (inactive) with U-251; 23.6 µM (inactive) in the assay on UACC-257; 22.1 µM (inactive) in the assay with UO-31.

On to `CN(C(=O)c1cc2c(s1)sc1c(=O)n(C)c3ccccc3c12)c1ccccc1`, for which the GI50 is 8.55 µM (inactive) in the assay with A549; > 100 µM (inactive) in the assay on COLO 205; 4.66 µM (inactive) in the assay with HCC 2998; 2.77 µM (inactive) in the assay on HT-29; 0.729 µM (active) with KM12; 0.61 µM (active) in the assay with MDA-N. Also, the GI50 in the assay on NCI-H226 was 5.48 µM (inactive); in the assay on NCI/ADR-RES, 4.54 µM (inactive); in the assay on OVCAR-3 it was 7.83 µM (inactive); in the assay on OVCAR-5 it was 63.7 µM (inactive); in the assay with OVCAR-8, 11.2 µM (inactive); with SK-MEL-5 it was 3.56 µM (inactive). Also, the GI50 is 31.3 µM (inactive) in the assay with SNB-19; 1.93 µM (inactive) in the assay on SR; 10.9 µM (inactive) with U-251; 29.4 µM (inactive) in the assay on UACC-257; 6.7 µM (inactive) with UO-31.

Take `CC(=O)Nc1cccc(N2C(=O)/C(=C\c3cccc(Oc4ccccc4)c3)S(=O)(=O)C2c2ccccc2)c1` (centres undefined): the GI50 is > 100 µM (inactive) in the assay with A498; > 100 µM (inactive) in the assay on A549; 59.7 µM (inactive) in the assay on COLO 205; > 100 µM (inactive) in the assay on HCC 2998; 64.9 µM (inactive) in the assay with HT-29; 68.5 µM (inactive) in the assay on KM12. For the same molecule, the GI50 is 33.1 µM (inactive) in the assay on MDA-N; > 100 µM (inactive) with NCI-H226; 55.5 µM (inactive) in the assay with NCI/ADR-RES; 45.4 µM (inactive) with OVCAR-3; > 100 µM (inactive) with OVCAR-5; 37.1 µM (inactive) in the assay on OVCAR-8. In addition, the GI50 with SK-MEL-5 was 76.6 µM (inactive); with SNB-19, > 100 µM (inactive); in the assay with SR, 15.9 µM (inactive); with SW-620, 37.8 µM (inactive); in the assay with U-251, 65.6 µM (inactive); in the assay on UACC-257, > 100 µM (inactive). Further, in the assay with UO-31, the GI50 is 33.1 µM (inactive).

With `CCOC(=O)c1sc2nc(SC)nc(Nc3ccc4c(c3)OCCCO4)c2c1N`, the GI50 in the assay on A498 was 26.7 µM (inactive); in the assay on A549 it was 8.47 µM (inactive); in the assay on COLO 205 it was 41.5 µM (inactive); in the assay with HCC 2998 it was 25.2 µM (inactive); in the assay with HT-29 it was 32.8 µM (inactive); in the assay on KM12 it was 24.2 µM (inactive). For the same molecule, the GI50 in the assay with MDA-N was 20.5 µM (inactive); in the assay with NCI-H226 it was 42.2 µM (inactive); with NCI/ADR-RES, 8.93 µM (inactive); with OVCAR-3, 16.5 µM (inactive); with OVCAR-5 it was > 100 µM (inactive); with OVCAR-8, 11.4 µM (inactive). The GI50 with SK-MEL-5 was 3.29 µM (inactive); with SNB-19, > 100 µM (inactive); with SR it was 16.7 µM (inactive); with SW-620, 17.5 µM (inactive); in the assay with U-251, 46.5 µM (inactive); with UACC-257, 7.82 µM (inactive). Moreover, the GI50 in the assay with UO-31 was 85.1 µM (inactive).

For `N#[N+]c1cc2c(cc1Br)-c1ccccc1C2`, the GI50 is > 100 µM (inactive) in the assay on A498; 95.9 µM (inactive) in the assay on A549; > 100 µM (inactive) in the assay with COLO 205; 85.5 µM (inactive) in the assay on HCC 2998; > 100 µM (inactive) with HT-29; > 100 µM (inactive) in the assay on Hs-578T. For the same molecule, the GI50 in the assay with KM12 was > 100 µM (inactive); in the assay on NCI-H226, 51.6 µM (inactive); in the assay with NCI/ADR-RES it was > 100 µM (inactive); in the assay with OVCAR-3 it was 46.9 µM (inactive); in the assay on OVCAR-5 it was > 100 µM (inactive); in the assay with OVCAR-8, 15.6 µM (inactive). The GI50 was 48.5 µM (inactive) in the assay on SK-MEL-5; 71.3 µM (inactive) in the assay on SNB-19; 0.413 µM (active) with SR; > 100 µM (inactive) with SW-620; 82.2 µM (inactive) in the assay on U-251; 23.5 µM (inactive) in the assay with UACC-257. Moreover, the GI50 in the assay on UO-31 is > 100 µM (inactive).

Turning to `Nc1nc(Cl)c2ncn(Cc3ccccc3CCl)c2n1`, the GI50 in the assay with A498 was 20.5 µM (inactive); in the assay on A549, 22 µM (inactive); with COLO 205 it was 5.05 µM (inactive); with HCC 2998 it was 2.99 µM (inactive); in the assay with HT-29 it was 3.85 µM (inactive); in the assay on Hs-578T, 7.76 µM (inactive). Moreover, the GI50 is 15.7 µM (inactive) in the assay on KM12; 2.64 µM (inactive) in the assay with NCI-H226; 4.52 µM (inactive) with NCI/ADR-RES; 3.37 µM (inactive) in the assay on OVCAR-3; 19.9 µM (inactive) in the assay with OVCAR-5; 3.86 µM (inactive) with OVCAR-8. Further, the GI50 in the assay on SK-MEL-5 was 8.55 µM (inactive); with SNB-19, 6.05 µM (inactive); in the assay on SR it was 3.34 µM (inactive); in the assay on SW-620, 3.3 µM (inactive); with U-251, 3.46 µM (inactive); in the assay on UACC-257, 13.1 µM (inactive). For the same molecule, the GI50 in the assay with UO-31 was 15.7 µM (inactive).

For the molecule `O=c1ccn2n1Cc1ccccc1C2`, the GI50 in the assay on A498, in the assay with A549, in the assay on COLO 205, with HCC 2998, in the assay on HT-29 and in the assay on Hs-578T was > 100 µM (inactive) in each case. Further, the GI50 in the assay with KM12, in the assay with NCI-H226, in the assay on NCI/ADR-RES, in the assay on OVCAR-3, in the assay on OVCAR-5 and with OVCAR-8 was > 100 µM (inactive) each time. Besides, the GI50 with SK-MEL-5, in the assay on SNB-19, with SR, with SW-620, in the assay on U-251 and in the assay on UACC-257 was > 100 µM (inactive) each time. For the same molecule, in the assay on UO-31, the GI50 is 79.8 µM (inactive).

As to `COC(=O)c1cc2c3c(ccc2[nH]1)N(C(=O)c1cc2cc(OC)c(OC)c(OC)c2[nH]1)CC3CCl` (centres undefined), the GI50 with A498 is 42.5 µM (inactive); in the assay with A549, 5.37 µM (inactive); in the assay on COLO 205, 2.66 µM (inactive); in the assay on HCC 2998 it was > 100 µM (inactive); in the assay with HT-29, 8.55 µM (inactive); in the assay on Hs-578T, 8.45 µM (inactive). In addition, the GI50 in the assay on KM12 was 6.4 µM (inactive); with NCI-H226, 14.3 µM (inactive); with NCI/ADR-RES, 12.2 µM (inactive); in the assay with OVCAR-3, > 24.4 µM (inactive); in the assay on OVCAR-5, > 100 µM (inactive); in the assay with OVCAR-8 it was 12.6 µM (inactive). The GI50 was 2.23 µM (inactive) with SK-MEL-5; > 100 µM (inactive) in the assay with SNB-19; 1.1 µM (active) in the assay on SR; 5.48 µM (inactive) with SW-620; 6.58 µM (inactive) in the assay on U-251; 81.5 µM (inactive) in the assay with UACC-257. Also, in the assay with UO-31, the GI50 was 7.59 µM (inactive).

As for `O=C(O)C1CCCCC1C(=O)Nn1cnnc1` (centres undefined), the GI50 in the assay with A549, with COLO 205, with HCC 2998, in the assay on HT-29, in the assay with KM12 and in the assay with MDA-N was > 100 µM (inactive) each time. Moreover, the GI50 in the assay with NCI/ADR-RES, with OVCAR-3, with OVCAR-5, with OVCAR-8, with SK-MEL-5 and in the assay with SNB-19 was > 100 µM (inactive) throughout. For the same molecule, the GI50 with SR, with SW-620, in the assay with U-251, with UACC-257 and in the assay on UO-31 was > 100 µM (inactive) each time.

On to `CC(=O)OCC1OC(O[C@@H]2C[C@H]3C(C)(C)[C@H](OC(C)=O)CC[C@]3(C)[C@H]3CC[C@]4(C)C(=CC[C@H]4[C@@H](C)C[C@@H](O)[C@H](O)C(C)(C)O)[C@@]32C)C(O)C(O)C1O` (some centres undefined), for which the GI50 in the assay with A498 is 19.9 µM (inactive); in the assay with COLO 205, 14 µM (inactive); with HCC 2998, 20.8 µM (inactive); with HT-29, 17.4 µM (inactive); in the assay with MDA-N it was 18.4 µM (inactive); in the assay on NCI/ADR-RES, > 100 µM (inactive). Besides, the GI50 is 15.4 µM (inactive) in the assay on OVCAR-3; 14.1 µM (inactive) in the assay on OVCAR-5; 17.3 µM (inactive) in the assay on OVCAR-8; 15.1 µM (inactive) in the assay on SNB-19; 16.3 µM (inactive) in the assay on SR; 17.9 µM (inactive) in the assay on SW-620. Also, the results for the GI50 in the assay with U-251, in the assay on UACC-257 and with UO-31 were 12.7 µM (inactive), 19 µM (inactive) and 17.4 µM (inactive), respectively.

With `Cn1c(N)nc2c(nc(OCc3ccccc3)n2C2OC(CO)C(O)C2O)c1=O` (centres undefined), the GI50 in the assay on A498, with A549, in the assay on COLO 205, in the assay on HT-29, in the assay on Hs-578T and with KM12 was > 100 µM (inactive) throughout. The GI50 in the assay on MDA-N, in the assay with NCI-H226, in the assay on OVCAR-3, with OVCAR-5, in the assay with OVCAR-8 and in the assay with SK-MEL-5 was > 100 µM (inactive) throughout. Also, the GI50 in the assay with SNB-19, in the assay on SR, in the assay on SW-620, in the assay on U-251, with UACC-257 and in the assay with UO-31 was > 100 µM (inactive) each time.
